# Measured values as given in patent publication US20210236605A1, “COMBINATIONS OF OSTEOPONTIN AND 2'-FUCOSYLLACTOSE FOR USE AS MEDICAMENTS” (HEALTH AND HAPPINESS (H&H) HONG KONG LIMITED, priority 2018, published 2021).
# What was measured:
# [1] = test system: scratching behaviour (pruritus) in DNCB-treated BALB/c mice; experiment: Assessment of scratching behaviour in DNCB-treated BALB/c mice; type: in vivo; conditions: oral administration, FIG. 2, combination esp. trials 7 & 8
# Protocol: (§1) Balb/c mice were purchased from the Animal Center of Southern Medical University (Guangzhou, China). The animals were maintained under a 12-h light/dark cycle in a specific pathogen-free animal facility at a controlled temperature (20-25° C.) and humidity (50±5%). All mice were fed with regular diet and autoclaved water. All animal experiments in this study were approved by the Welfare and Ethical Committee for Experimental Animal Care of Southern Medical University. To induce AD-like symptom, dinitrochlorobenzene (DNCB) solution (dissolved in a 3:1 mixture of acetone and olive oil) was applied to the dorsal skin and ears of mice (female, 6-8 weeks old). One day after complete dorsal hair removal (approximately 4 cm^2), 150 μl of 2% DNCB solution was applied on the dorsal skin, and 10 μl each were applied to the back of both ears at day 1. Four days after sensitization, 0.5% DNCB dissolved in an acetone:olive oil mixture (3:1 vol/vol) is applied to challenge the dorsal skin (150 μl) and the back of both ears (10 μl each) once every two days, (days-27). […]
# Mice were placed into cages for 1 h for habituation. After habituation, the number of scratching episodes for 15 min was counted macroscopically. A series of scratching movements made with the paw was counted as one scratching episode. The total scratching behaviour number was calculated within 15 min. […]
# [2] = test system: DNCB-induced AD-like symptoms in BALB/c mice; experiment: Evaluation of AD score / AD-like symptoms in DNCB-induced BALB/c AD model; type: in vivo; conditions: for severity of DNCB-induced AD-like symptoms: BALB/c mice, OPN 37.5 or 2.7 mg/kg(bw)/day, 2-FL 600 or 75 mg/kg(bw)/day, compared with saline-supplemented mice; for AD score (dermatitis score, AD-like symptoms): oral administration, DNCB-treated BALB/c mice, FIG. 1, combinations esp. trials 7 and 8 (high OPN)
# Source text: To investigate the potential therapeutic effect of OPN or 2-FL or an OPN/2FL combination on inflammation and emergence of atopic dermatitis (AD), BALB/c AD model was established by topical application of DNCB on each ear and the dorsal skin. Edema, excoriation, erythema, and scarring were apparent on the skin of DNCB sensitized mice after multiple challenged of DNCB. Strikingly, the severity of DNCB-induced AD-like symptoms in BALB/c mice was ameliorated upon supplementation with OPN (37.5 or 2.7 mg/kg(bw) day) and 2-FL (600 or 75 mg/kg(bw)·day) compared with saline-supplemented mice. Pruritus is an essential feature of AD. The scratching behaviour has already been established as an objective indicator to evaluate pruritus in animal model.
# Balb/c mice were purchased from the Animal Center of Southern Medical University (Guangzhou, China). The animals were maintained under a 12-h light/dark cycle in a specific pathogen-free animal facility at a controlled temperature (20-25° C.) and humidity (50±5%). All mice were fed with regular diet and autoclaved water. All animal experiments in this study were approved by the Welfare and Ethical Committee for Experimental Animal Care of Southern Medical University. To induce AD-like symptom, dinitrochlorobenzene (DNCB) solution (dissolved in a 3:1 mixture of acetone and olive oil) was applied to the dorsal skin and ears of mice (female, 6-8 weeks old). One day after complete dorsal hair removal (approximately 4 cm^2), 150 μl of 2% DNCB solution was applied on the dorsal skin, and 10 μl each were applied to the back of both ears at day 1. Four days after sensitization, 0.5% DNCB dissolved in an acetone:olive oil mixture (3:1 vol/vol) is applied to challenge the dorsal skin (150 μl) and the back of both ears (10 μl each) once every two days, (days-27). OPN and 2-FL were dissolved in 0.9% normal saline. Mice treated with DNCB are intragastrically administered with 2-FL, OPN or 2-FL plus OPN from day 0 to day 27. The mice in the vehicle and another DNCB groups are given an equal volume of physiological saline.
# The severity of dorsal skin lesions were assessed macroscopically according to the following four symptoms: edema, erythema/hemorrhage, excoriation/erosion, and scarring/dryness, and the sum of the individual scores (0, no symptoms; 1, mild; 2, moderate; 3, severe), ranging from 0 to 12, was defined as the final dermatitis scores. These visual assessments were performed every two day and by at least two independent investigators.
# FIG. 1: OPN and 2-FL alleviation of AD-like symptoms induced—as per dermatitis score evaluation—by DNCB in BALB/c mice. […]
# [3] = test system: serum IgE; experiment: Determination of serum IgE levels (ELISA) in DNCB sensitized mice; type: in vivo; conditions: day 27, DNCB-sensitized BALB/c mice (DNCB saline group 1025.02±82.68), FIG. 3; combination = high dose, trial 8
# Protocol: as §1, with “(days-27). OPN and 2-FL were dissolved in 0.9% normal saline.” for “(days-27).”
# Individual mouse serum was collected on the last day of the experiment. Serum levels of IgE were quantified using the commercial enzyme-linked immunosorbent assay (ELISA) kits (Invitrogen, San Diego, USA) according to the manufacturer's instructions. […]
# [4] = test system: cytokine mRNA expression in skin (TSLP, IL-4, IL-17, IFN-γ, T-bet, GATA3, ROR-γt); experiment: Quantitative RT-PCR of cytokine and transcription factor mRNA in dorsal skin of DNCB-treated mice; type: in vivo, BALB/c mice; conditions: dorsal skin / skin lesions, ratio to GAPDH, vs saline-treated/control AD mice
# Protocol: Total RNA was isolated from the dorsal skin of the control and treated BALB/c mice. Subsequently, cytokine mRNA expression in the skin sample was measured by RT-PCR.
# Balb/c mice were purchased from the Animal Center of Southern Medical University (Guangzhou, China). The animals were maintained under a 12-h light/dark cycle in a specific pathogen-free animal facility at a controlled temperature (20-25° C.) and humidity (50±5%). All mice were fed with regular diet and autoclaved water. All animal experiments in this study were approved by the Welfare and Ethical Committee for Experimental Animal Care of Southern Medical University. […]
# Total RNA was isolated from dorsal skin using TRIzol (TransGen Biotech, Beijing, China) according to manufacturer's instruction. 500 ng RNA was quantified for the reverse transcription reaction with TranScript All-in-One First-Strand cDNA Synthesis SuperMix (TransGen Biotech, Beijing, China) in a total volume of 10 μL. Quantitative real-time PCR (RT-PCR) analysis of gene expression was performed using TransStart Green qPCR SuperMix (TransGen Biotech, Beijing, China). […]
# FIGS. 5 (a), (b) and (c): Relative mRNA expression levels of Th2-associated cytokines ((a) TSLP and (b) IL-4) and IL17a, as measured by RT-PCR and expressed as a ratio of GAPDH, extracted from BALB/c mice treated with DNCB in the presence and absence of OPN and/or 2FL. *p<0.05, **p<0.01. […]
Substance,scratching behaviour (number of scratching episodes for 15 min) [1],severity of DNCB-induced AD-like symptoms [2],"AD score (dermatitis score, AD-like symptoms) [2]",serum IgE concentration [3] [µg/mL],IL-17 mRNA expression in skin [4]
2′-fucosyllactose [2-FL],reduced scratching behaviour,ameliorated,reduced substantially,621.27 ± 46.79,significantly lower
osteopontin [OPN],reduced scratching behaviour,ameliorated,reduced substantially,388.22 ± 61.28,significantly lower
